Measurements published in the NIST ThermoML archive (doi:10.1016/j.tca.2017.12.019).
Numbers after ± are expanded uncertainties.

Columns and labels:
[1] = Crystal; DTA
[2] = Molar enthalpy of transition or fusion; conditions: Crystal; DSC

With CCCCCCCCCCCC(=O)O [dodecanoic acid] the Normal melting temperature [1] was 42.70 ± 0.7 °C and the “Molar enthalpy of transition or fusion” value [2] was 8.43 ± 0.234 kcal/mol.
